# Laboratory results published in US4450269A, “Mono-5-substituted-3-chloro-4H-1,2,6-thiadiazin-4-one antifungal agents” (FMC Corporation, priority 1980, dated 1984).
# Like-named read-outs stand apart in the source and are kept apart here.
# What was measured:
# Pythium ultimum = experiment: Mycelial growth test; assay type: cell-based; conditions: Globisporangium ultimum, 72 h, PU, read-out: Percent Fungus Growth Inhibition
# Uromyces phaseoli [1] = experiment: whole plant or invertebrate; conditions: foliar, read-out: Percent Disease Control, foliar, bean rust
# Sclerotinia fructicola = experiment: Mycelial growth test; assay type: cell-based; conditions: Sclerotinia, 72 h, SF, read-out: Percent Fungus Growth Inhibition
# Excerpt: | SF = Sclerotinia fructicola
# Cladosporium cucumerinum [2] = experiment: Spore germination test; assay type: cell-based; conditions: CC, 48 hours
# Experimental: CC = Cladosporium cucumerinum
# (§1) The test chemical was dissolved or suspended in acetone in an amount such that 0.8 ml of the resulting suspension or solution, mixed with 40 ml water agar produced a water agar solution containing 40, 10, 2.5 and 1 ppm of test chemical. The resulting agar solution, at 50° C., was then divided equally between two sterile petri dishes, each having four separated quadrants, and allowed to solidify. […] quadrants of each dish were flooded with 0.1 ml of a spore suspension in sterile water. Spores of two pathogens, Erysiphe polygoni and Uromyes phaseoli, from infected plant leaves, were brushed on the remaining two quadrants. The tests were then incubated 48 hours, at 24° C.
# (§2) Readings were then taken and the percentage of germinated spores calculated. From this percentage, a spore germination rating was assigned as follows: […]
# Phytophthora infestans [3] = experiment: whole plant or invertebrate; assay type: in vivo; conditions: Phytophthora infestans, in Solanum lycopersicum, foliar, read-out: Percent Disease Control, foliar, tomato late blight, 150 ppm, protective
# Erysiphe polygoni [4] = experiment: Spore germination test; assay type: cell-based; conditions: EP, 48 hours
# Experimental: as §1, §2
# Botrytis cinerea = experiment: Spore germination test; assay type: cell-based; conditions: BC, 48 hours
# Experimental: as §1, §2
# Alternaria solani [5] = experiment: Spore germination test; assay type: cell-based; conditions: AS, 48 hours
# Experimental: as §1, §2
# Uromyces phaseoli [6] = experiment: Spore germination test; assay type: cell-based; conditions: UP, 48 hours
# Experimental: as §1, §2
# Erysiphe polygoni [7] = experiment: whole plant or invertebrate; conditions: foliar, 24 h, read-out: Percent Disease Control, curative, bean powdery mildew
# Pyricularia oryzae [8] = experiment: microbe, parasite or virus in culture; assay type: cell-based; conditions: Pyricularia oryzae, 72 h
# Fusarium solani = experiment: Mycelial growth test; assay type: cell-based; conditions: Fusarium solani, 72 h
# Pyricularia oryzae [9] = experiment: whole plant or invertebrate; assay type: in vivo; conditions: Pyricularia oryzae, foliar, 24 h, read-out: Percent Disease Control, curative, rice blast, 150 ppm, 24 hours after inoculation
# Uromyces phaseoli [10] = experiment: whole plant or invertebrate; conditions: foliar, 24 h, read-out: Percent Disease Control, curative, bean rust
# Alternaria solani [11] = experiment: Mycelial growth test; assay type: cell-based; conditions: Alternaria solani, 72 h, AS, read-out: Percent Fungus Growth Inhibition
# Pyricularia oryzae [12] = assay type: cell-based; conditions: PO, 48 hours
# Cladosporium cucumerinum [13] = experiment: Mycelial growth test; assay type: cell-based; conditions: Cladosporium cucumerinum, CC, read-out: Percent Fungus Growth Inhibition
# Excerpt: |CC = Cladosporium cucumerinum
# Rhizoctonia solani = experiment: Mycelial growth test; assay type: cell-based; conditions: Rhizoctonia solani, 72 h, RS, read-out: Percent Fungus Growth Inhibition
# Excerpt: | RS = Rhizoctonia solani
# Helminthosporium oryzae = experiment: Mycelial growth test; conditions: Bipolaris oryzae, 72 h
# Phytophthora infestans [14] = assay type: cell-based; conditions: PI, 48 hours
compound,measurement,setting,value
"O=c1c(Cl)nsnc1Oc1ccc(O)cc1 [Compound 35, 3-chloro-5-(4-hydroxyphenoxy)-4H-1,2,6-thiadiazin-4-one]",inhibition at 5 ppm,Pythium ultimum; 5 ppm,0%
same,inhibition at 10 ppm,Pythium ultimum; 10 ppm,11%
same,inhibition at 20 ppm,Pythium ultimum; 20 ppm,100%
same,inhibition at 40 ppm,Pythium ultimum; 40 ppm,100%
same,pest or weed control at 150 ppm,Uromyces phaseoli [1],100%
same,inhibition at 5 ppm,Sclerotinia fructicola; 5 ppm,8%
same,inhibition at 10 ppm,Sclerotinia fructicola; 10 ppm,27%
same,inhibition at 20 ppm,Sclerotinia fructicola; 20 ppm,69%
same,inhibition at 40 ppm,Sclerotinia fructicola; 40 ppm,100%
same,Spore Germination Rating,Cladosporium cucumerinum [2]; 1.0 ppm,4 (80-100)
same,Spore Germination Rating,Cladosporium cucumerinum [2]; 2.5 ppm,0 (0-10)
same,Spore Germination Rating,Cladosporium cucumerinum [2]; 10 ppm,3 (60-80)
same,Spore Germination Rating,Cladosporium cucumerinum [2]; 40 ppm,0 (0-10)
same,pest or weed control at 150 ppm,Phytophthora infestans [3],100%
same,Spore Germination Rating,Erysiphe polygoni [4]; 1.0 ppm,4 (80-100)
same,Spore Germination Rating,Erysiphe polygoni [4]; 2.5 ppm,4 (80-100)
same,Spore Germination Rating,Erysiphe polygoni [4]; 10 ppm,2 (40-60)
same,Spore Germination Rating,Erysiphe polygoni [4]; 40 ppm,1 (10-40)
same,Spore Germination Rating,Botrytis cinerea; 1.0 ppm,4 (80-100)
same,Spore Germination Rating,Botrytis cinerea; 2.5 ppm,4 (80-100)
same,Spore Germination Rating,Botrytis cinerea; 10 ppm,4 (80-100)
same,Spore Germination Rating,Botrytis cinerea; 40 ppm,3 (60-80)
same,Spore Germination Rating,Alternaria solani [5]; 1.0 ppm,4 (80-100)
same,Spore Germination Rating,Alternaria solani [5]; 2.5 ppm,4 (80-100)
same,Spore Germination Rating,Alternaria solani [5]; 10 ppm,3 (60-80)
same,Spore Germination Rating,Alternaria solani [5]; 40 ppm,0 (0-10)
same,Spore Germination Rating,Uromyces phaseoli [6]; 1.0 ppm,0 (0-10)
same,Spore Germination Rating,Uromyces phaseoli [6]; 2.5 ppm,0 (0-10)
same,Spore Germination Rating,Uromyces phaseoli [6]; 10 ppm,0 (0-10)
same,Spore Germination Rating,Uromyces phaseoli [6]; 40 ppm,0 (0-10)
same,pest or weed control at 150 ppm,Erysiphe polygoni [7],0%
same,inhibition at 5 ppm,"Pyricularia oryzae [8]; read-out: Percent Fungus Growth Inhibition, PO, 5 ppm, 72 hours",23%
same,inhibition at 10 ppm,"Pyricularia oryzae [8]; read-out: Percent Fungus Growth Inhibition, PO, 10 ppm, 72 hours",38%
same,inhibition at 20 ppm,"Pyricularia oryzae [8]; read-out: Percent Fungus Growth Inhibition, PO, 20 ppm, 72 hours",100%
same,inhibition at 40 ppm,"Pyricularia oryzae [8]; read-out: Percent Fungus Growth Inhibition, PO, 40 ppm, 72 hours",100%
same,inhibition at 5 ppm,"Fusarium solani; PS, 5 ppm, 72 hours, read-out: Percent Fungus Growth Inhibition",30%
same,inhibition at 10 ppm,"Fusarium solani; PS, 10 ppm, 72 hours, read-out: Percent Fungus Growth Inhibition",35%
same,inhibition at 20 ppm,"Fusarium solani; PS, 20 ppm, 72 hours, read-out: Percent Fungus Growth Inhibition",60%
same,inhibition at 40 ppm,"Fusarium solani; read-out: Percent Fungus Growth Inhibition, PS, 40 ppm, 72 hours",80%
same,pest or weed control at 150 ppm,Pyricularia oryzae [9],0%
same,pest or weed control at 150 ppm,Uromyces phaseoli [10],0%
same,inhibition at 5 ppm,Alternaria solani [11]; 5 ppm,90%
same,inhibition at 10 ppm,Alternaria solani [11]; 10 ppm,100%
same,inhibition at 20 ppm,Alternaria solani [11]; 20 ppm,100%
same,inhibition at 40 ppm,Alternaria solani [11]; 40 ppm,100%
same,Spore Germination Rating,Pyricularia oryzae [12]; 1.0 ppm,2 (40-60)
same,Spore Germination Rating,Pyricularia oryzae [12]; 2.5 ppm,0 (0-10)
same,Spore Germination Rating,Pyricularia oryzae [12]; 10 ppm,0 (0-10)
same,Spore Germination Rating,Pyricularia oryzae [12]; 40 ppm,0 (0-10)
same,inhibition at 5 ppm,"Cladosporium cucumerinum [13]; 72 h, 5 ppm",0%
same,inhibition at 10 ppm,"Cladosporium cucumerinum [13]; 72 h, 10 ppm",0%
same,inhibition at 40 ppm,"Cladosporium cucumerinum [13]; 72 h, 40 ppm",92%
same,inhibition at 20 ppm,"Cladosporium cucumerinum [13]; CC20, 72 h, 20 ppm",23%
same,inhibition at 5 ppm,Rhizoctonia solani; 5 ppm,0%
same,inhibition at 10 ppm,Rhizoctonia solani; 10 ppm,7%
same,inhibition at 20 ppm,Rhizoctonia solani; 20 ppm,44%
same,inhibition at 40 ppm,Rhizoctonia solani; 40 ppm,76%
same,inhibition at 5 ppm,"Helminthosporium oryzae; read-out: Percent Fungus Growth Inhibition, HO, 5 ppm, 72 hours",83%
same,inhibition at 10 ppm,"Helminthosporium oryzae; read-out: Percent Fungus Growth Inhibition, HO, 10 ppm, 72 hours",100%
same,inhibition at 20 ppm,"Helminthosporium oryzae; read-out: Percent Fungus Growth Inhibition, HO, 20 ppm, 72 hours",89%
same,inhibition at 40 ppm,"Helminthosporium oryzae; read-out: Percent Fungus Growth Inhibition, HO, 40 ppm, 72 hours",100%
same,Spore Germination Rating,Phytophthora infestans [14]; 1.0 ppm,4 (80-100)
same,Spore Germination Rating,Phytophthora infestans [14]; 2.5 ppm,0 (0-10)
same,Spore Germination Rating,Phytophthora infestans [14]; 10 ppm,0 (0-10)
same,Spore Germination Rating,Phytophthora infestans [14]; 40 ppm,0 (0-10)
